From patent US20250195475A1, “CDK2 INHIBITOR AND PREPARATION METHOD AND USE THEREOF” (INVENTISBIO CO., LTD., priority 2022, published 2025)

Target: CDK2/CyclinE1 (Homo sapiens (Human), UniProt P24941)
Assay: CDK2 kinase assay (TR-FRET)
Type: biochemical
Details: CDK2/CyclinE1 0.5 nM, ATP 50 μM
Protocol: The purpose of these assays is to evaluate the inhibition of small molecule inhibitors by using TR-FRET assay.
Compound Preparation. Dissslove the compounds into DMSO solution to make 10 mM DMSO stock. Serially dilute the stock solution from highest concentration down to lowest in DMSO to make the compound stock plate (100× stock plates). To make 5× compound intermediate plate, add 38 μL of assay buffer (50 mM HEPES, pH 7.5, 0.05 mg/mL BSA, 10 mM MgCl2, 1 mM EGTA, 0.01% Tween-20, 2 mM DTT) into each well of the V-bottom plate; then transfer 2 μL of the stock compound solution of each concentration from the compound stock plate (100× stock), and mix well.
Enzyme reaction. Transfer 2 μL compound from 5× intermediate plate into assay plate, then add 4 μL/well 2.5× Enzyme mix to assay plate, incubation for 10 min at room temperature. For positive control wells, add 4 μL/well assay buffer instead of Enzyme mix. Then add 4 μL/well 2.5× Substrate mix to assay plate, and incubation at 25° C. for 30 min at room temperature. After reaction, 10 μL 2× Detection mix (final 15 mM EDTA, 1× LANCE Detection Buffer, 0.5 nM Detection antibody) was added and incubated for 1 h prior to detection with excitation and emission at 320 and 665 nm (Tecan Spark® TR-FRET mode Tecan).
Inhibition rate (IR) of the tested compounds was determined by the following formula: IR (%)=(average High control−compound well)/(average High control−average Low control)*100%. Fit the compound IC50 from non-linear regression equation: Y=Bottom+(Top−Bottom)/(1+10^((Log IC50−X)*HillSlope)). X: Log of cpd concentration; Y: Inhibition rate (TR); Top and Bottom: Plateaus in same units as Y, log IC50: same log units as X; HillSlope: Slope factor or Hill slope.

SMILES	IC50
COC[C@H]1C[C@@H]1C(=O)Nc1cc([C@H]2CC[C@@H](OC(=O)NC(C)C(F)F)C2)[nH]n1 (single isomer, unassigned) [Compound 108]	5 nM
CC1(NC(=O)O[C@H]2CC[C@@H](c3cc(NC(=O)C4CC4C#N)n[nH]3)C2)CC1 (single isomer, unassigned) [Compound 195]	1.5 nM
COCc1cc(C(=O)Nc2cc([C@H]3CC[C@@H](OC(=O)N[C@H]4C[C@]5(CCOC5)C4)C3)[nH]n2)n(C)n1 [Compound 202]	3.9 nM
Cc1occc1C(=O)Nc1cc([C@@H]2C[C@H](OC(=O)NC(C)C)CO2)[nH]n1 [Compound 133]	50.1 nM
CC(C)NC(=O)O[C@@H]1CC[C@H](c2cc(NC(=O)C3CC34CCOC4)n[nH]2)C1 (stereo partly drawn) [Compound 175]	174 nM
COC[C@H]1C[C@@H]1C(=O)Nc1cc([C@H]2CC[C@@H](OC(=O)NC34CC(C3)C4)C2)[nH]n1 [Compound 34]	0.7 nM
CC(C)NC(=O)O[C@@H]1CC[C@H](c2cc(NC(=O)CN3CC(F)C3)n[nH]2)C1 [Compound 82]	114 nM
CC(C)NC(=O)OC1COC(c2cc(NC(=O)c3ccnn3C)n[nH]2)C1 (stereo not drawn) [Compound 27]	1.2 nM
COCC1CC(C(=O)Nc2cc([C@H]3CC[C@@H](OC(=O)NC(C)C)C3)[nH]n2)C1 (single isomer, unassigned) [Compound 148]	5.5 nM
Cc1c(C2CC2C(=O)Nc2cc([C@H]3CC[C@@H](OC(=O)NC4(C)CC4)C3)[nH]n2)cnn1C (single isomer, unassigned) [Compound 206]	0.8 nM
CC(C)(C)NC(=O)O[C@@H]1CC[C@H](c2cc(NC(=O)C3CC3C#N)n[nH]2)C1 (single isomer, unassigned) [Compound 187]	1.4 nM
Cn1nccc1C(=O)Nc1cc([C@H]2C[C@@H](OC(=O)NC34CC(F)(C3)C4)CO2)[nH]n1 [Compound 159]	1.6 nM
Cn1nccc1C(=O)Nc1cc([C@@H]2C[C@H](OC(=O)NC3(CF)CCC3)CO2)[nH]n1 [Compound 216]	1.8 nM
C#C[C@H]1C[C@@H]1C(=O)Nc1cc([C@@H]2C[C@H](OC(=O)NC3(C)CC3)CO2)[nH]n1 [Compound 157]	2.9 nM
C#C[C@H]1C[C@@H]1C(=O)Nc1cc([C@@H]2C[C@H](OC(=O)NC3(C)COC3)CO2)[nH]n1 [Compound 197]	15.7 nM
COCc1cc(F)cc(CC(=O)Nc2cc([C@@H]3C[C@H](OC(=O)NC(C)C)CO3)[nH]n2)c1 [Compound 104]	17.5 nM
CC(C)NC(=O)O[C@@H]1CO[C@H](c2cc(NC(=O)[C@@H]3CCN(S(=O)(=O)C4CC4)C3)n[nH]2)C1 [Compound 132]	7.2 nM
Cn1nccc1C(=O)Nc1cc([C@H]2C[C@@H](OC(=O)NC(C)(C)C)CO2)[nH]n1 [Compound 101]	1.5 nM
Cn1nccc1C(=O)Nc1cc([C@@H]2C[C@H](OC(=O)NC34CC(F)(C3)C4)CO2)[nH]n1 [Compound 160]	5.3 nM
C#C[C@H]1C[C@@H]1C(=O)Nc1cc([C@@H]2C[C@H](OC(=O)N[C@@H](C)CC)CO2)[nH]n1 [Compound 156]	6 nM
CC(C)NC(=O)OC1COC(c2cc(NC(=O)Cc3ccc(C(F)(F)F)cc3)n[nH]2)C1 (stereo not drawn) [Compound 63]	9.7 nM
CC1(NC(=O)O[C@@H]2CC[C@H](c3cc(NC(=O)[C@@H]4CCN(S(C)(=O)=O)C4)n[nH]3)C2)CCC1 [Compound 119]	0.4 nM
CS(=O)(=O)N1CC[C@@H](C(=O)Nc2cc([C@H]3CC[C@@H](OC(=O)NC45CC(C4)C5)C3)[nH]n2)C1 [Compound 81]	0.9 nM
CC(C)NC(=O)O[C@@H]1CC[C@H](c2cc(NC(=O)[C@@H]3CCN(S(=O)(=O)C4CC4)C3)n[nH]2)C1 [Compound 70]	1.2 nM

SMILES	IC50
CCC(C)(C)NC(=O)O[C@H]1CO[C@@H](c2cc(NC(=O)c3ccnn3C)n[nH]2)C1 [Compound 190]	0.6 nM
C#C[C@H]1C[C@@H]1C(=O)Nc1cc([C@H]2C[C@@H](OC(=O)NC(C)(C)CC)CO2)[nH]n1 [Compound 168]	0.6 nM
CC(C)NC(=O)O[C@@H]1CO[C@H](c2cc(NC(=O)c3cc(C4CC4)nn3C)n[nH]2)C1 [Compound 77]	56 nM
CC(C)NC(=O)O[C@@H]1CC[C@H](c2cc(NC(=O)[C@@H]3CCCN(S(C)(=O)=O)C3)n[nH]2)C1 [Compound 71]	8.7 nM
COC[C@H]1C[C@@H]1C(=O)Nc1cc([C@H]2CC[C@@H](OC(=O)N[C@H](C)C3CC3)C2)[nH]n1 [Compound 73]	4.1 nM
Cc1c(C2CC2C(=O)Nc2cc([C@H]3CC[C@@H](OC(=O)NC(C)C)C3)[nH]n2)cnn1C (single isomer, unassigned) [Compound 163]	0.7 nM
COC[C@H]1C[C@@H]1C(=O)Nc1cc([C@H]2CC[C@@H](OC(=O)N[C@@H](C)C3CC3)C2)[nH]n1 [Compound 57]	5.8 nM
CC(C)NC(=O)OC1COC(c2cc(NC(=O)c3ccccc3)n[nH]2)C1 (stereo not drawn) [Compound 66]	14.4 nM
C#C[C@H]1C[C@@H]1C(=O)Nc1cc([C@@H]2CC[C@H](OC(=O)NC3(C)CC3)C2)[nH]n1 [Compound 223]	0.5 nM
CC(C)NC(=O)O[C@@H]1CC[C@H](c2cc(Nc3nccc(-c4cnn(C)c4)n3)n[nH]2)C1 [Compound 11]	40.7 nM
CCc1cc(C(=O)Nc2cc([C@@H]3C[C@H](OC(=O)NC(C)C)CO3)[nH]n2)n(C)n1 [Compound 78]	18.7 nM
C#C[C@H]1C[C@@H]1C(=O)Nc1cc([C@H]2C[C@@H](OC(=O)NC(C)(C)C)CO2)[nH]n1 [Compound 166]	0.9 nM
C#C[C@H]1C[C@@H]1C(=O)Nc1cc([C@@H]2C[C@H](OC(=O)NC(C)C)CO2)[nH]n1 [Compound 165]	4.7 nM
CS(=O)(=O)N1CC[C@@H](C(=O)Nc2cc([C@H]3CC[C@@H](OC(=O)NC4(C(F)F)CC4)C3)[nH]n2)C1 [Compound 124]	1.2 nM
CC(C)NC(=O)O[C@H]1CO[C@@H](c2cc(NC(=O)Cc3ccc(OCCN4CCCC4)cc3)n[nH]2)C1 [Compound 121]	3.2 nM
CC(C)NC(=O)O[C@@H]1CC[C@H](c2cc(Nc3nccc(CCO)n3)n[nH]2)C1 [Compound 12]	10.1 nM
CC[C@H](C)NC(=O)O[C@@H]1CC[C@H](c2cc(NC(=O)[C@@H]3CCN(S(C)(=O)=O)C3)n[nH]2)C1 [Compound 59]	4.9 nM
Cn1nc(C2CC2)cc1C(=O)Nc1cc([C@H]2CC[C@@H](OC(=O)NC3COC4(CCC4)C3)C2)[nH]n1 (single isomer, unassigned) [Compound 47]	64 nM
C#C[C@H]1C[C@@H]1C(=O)Nc1cc([C@@H]2CC[C@H](OC(=O)NC3(C)CCC3)C2)[nH]n1 [Compound 219]	0.5 nM
C#C[C@H]1C[C@@H]1C(=O)Nc1cc([C@H]2C[C@@H](OC(=O)NC(C)C)CO2)[nH]n1 [Compound 164]	1.5 nM
COC[C@H]1C[C@@H]1C(=O)Nc1cc([C@H]2CC[C@@H](OC(=O)NC34CC(F)(C3)C4)C2)[nH]n1 [Compound 125]	1.3 nM
CC(C)NC(=O)O[C@@H]1CO[C@H](c2cc(NC(=O)c3cc(C(F)F)nn3C)n[nH]2)C1 [Compound 112]	13.4 nM
COC[C@H]1C[C@@H]1C(=O)Nc1cc([C@H]2CC[C@@H](OC(=O)NC3(C)CC3)C2)[nH]n1 [Compound 35]	0.8 nM
COC[C@@H]1CCN(C(=O)Nc2cc([C@H]3CC[C@@H](OC(=O)NC(C)C)C3)[nH]n2)C1 [Compound 120]	116 nM
